# From PubChem BioAssay (NCI)
#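 Following 48 hours of exposure in 96-well plates, responses at five concentrations were used to interpolate endpoints linearly. TGI marks complete inhibition of growth.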
# Experiments:
# Test in all cases: NCI-60 cell line screen, 48 h
# NCI-H460 lung = system: NCI-H460 lung
# NCI/ADR-RES ovarian = system: NCI/ADR-RES ovarian
# SNB-75 CNS = system: SNB-75 CNS
# 786-0 renal = system: 786-0 renal
# HOP-92 NSCLC = system: HOP-92 NSCLC
# SR leukemia = system: SR leukemia
# COLO 205 colon = system: COLO 205 colon
# OVCAR-3 ovarian = system: OVCAR-3 ovarian
# HOP-62 NSCLC = system: HOP-62 NSCLC
# TK-10 renal = system: TK-10 renal
# CCRF-CEM leukemia = system: CCRF-CEM leukemia
# HCT-116 colon = system: HCT-116 colon
# HCT-15 colon = system: HCT-15 colon
# T-47D breast = system: T-47D breast
# U251 CNS = system: U251 CNS
# IGROV1 ovarian = system: IGROV1 ovarian
# OVCAR-8 ovarian = system: OVCAR-8 ovarian
# SF-539 CNS = system: SF-539 CNS
# LOX IMVI melanoma = system: LOX IMVI melanoma
# SK-MEL-28 melanoma = system: SK-MEL-28 melanoma
# SK-MEL-2 melanoma = system: SK-MEL-2 melanoma
# MOLT-4 leukemia = system: MOLT-4 leukemia
# K-562 leukemia = system: K-562 leukemia
# RXF 393 renal = system: RXF 393 renal
# MALME-3M melanoma = system: MALME-3M melanoma
# SF-268 CNS = system: SF-268 CNS
# M14 melanoma = system: M14 melanoma
# UO-31 renal = system: UO-31 renal
# KM12 colon = system: KM12 colon
# SK-MEL-5 melanoma = system: SK-MEL-5 melanoma
# MCF7 breast = system: MCF7 breast
# ACHN renal = system: ACHN renal
# CAKI-1 renal = system: CAKI-1 renal
# NCI-H226 lung = system: NCI-H226 lung
# SW-620 colon = system: SW-620 colon
# PC-3 prostate = system: PC-3 prostate
# MDA-N = system: MDA-N
# RPMI-8226 leukemia = system: RPMI-8226 leukemia
# SF-295 CNS = system: SF-295 CNS
# HL-60(TB) leukemia = system: HL-60(TB) leukemia
# A549 NSCLC = system: A549 NSCLC
# SNB-19 CNS = system: SNB-19 CNS
# NCI-H23 lung = system: NCI-H23 lung
# SK-OV-3 ovarian = system: SK-OV-3 ovarian
# SN12C renal = system: SN12C renal
# OVCAR-5 ovarian = system: OVCAR-5 ovarian
# HCC-2998 colon = system: HCC-2998 colon
# BT-549 breast = system: BT-549 breast
# UACC-257 melanoma = system: UACC-257 melanoma
# A498 renal = system: A498 renal
# MDA-MB-231 breast = system: MDA-MB-231 breast
# UACC-62 melanoma = system: UACC-62 melanoma
# EKVX NSCLC = system: EKVX NSCLC
# HT29 colon = system: HT29 colon
# MDA-MB-435 = system: MDA-MB-435
# HS 578T breast = system: HS 578T breast
smiles,measurement,setting,value
CO/C(=N\N=C\c1ccc(Cl)c(Cl)c1)c1ccncc1,TGI,NCI-H460 lung,> 10 µM
same,TGI,NCI/ADR-RES ovarian,> 10 µM
same,TGI,SNB-75 CNS,> 10 µM
same,TGI,786-0 renal,> 10 µM
same,TGI,HOP-92 NSCLC,> 10 µM
same,TGI,SR leukemia,> 10 µM
same,TGI,COLO 205 colon,> 10 µM
same,TGI,OVCAR-3 ovarian,> 10 µM
same,TGI,HOP-62 NSCLC,> 10 µM
same,TGI,TK-10 renal,> 10 µM
same,TGI,CCRF-CEM leukemia,> 10 µM
same,TGI,HCT-116 colon,> 10 µM
same,TGI,HCT-15 colon,> 10 µM
same,TGI,T-47D breast,> 10 µM
same,TGI,U251 CNS,> 10 µM
same,TGI,IGROV1 ovarian,> 10 µM
same,TGI,OVCAR-8 ovarian,> 10 µM
same,TGI,SF-539 CNS,> 10 µM
same,TGI,LOX IMVI melanoma,> 10 µM
same,TGI,SK-MEL-28 melanoma,> 10 µM
same,TGI,SK-MEL-2 melanoma,> 10 µM
same,TGI,MOLT-4 leukemia,> 10 µM
same,TGI,K-562 leukemia,> 10 µM
same,TGI,RXF 393 renal,> 10 µM
same,TGI,MALME-3M melanoma,> 10 µM
same,TGI,SF-268 CNS,> 10 µM
same,TGI,M14 melanoma,> 10 µM
same,TGI,UO-31 renal,> 10 µM
same,TGI,KM12 colon,> 10 µM
same,TGI,SK-MEL-5 melanoma,> 10 µM
same,TGI,MCF7 breast,> 10 µM
same,TGI,ACHN renal,> 10 µM
same,TGI,CAKI-1 renal,> 10 µM
same,TGI,NCI-H226 lung,> 10 µM
same,TGI,SW-620 colon,> 10 µM
same,TGI,PC-3 prostate,> 10 µM
same,TGI,MDA-N,> 10 µM
same,TGI,RPMI-8226 leukemia,> 10 µM
same,TGI,SF-295 CNS,> 10 µM
same,TGI,HL-60(TB) leukemia,> 10 µM
same,TGI,A549 NSCLC,> 10 µM
same,TGI,SNB-19 CNS,> 10 µM
same,TGI,NCI-H23 lung,> 10 µM
same,TGI,SK-OV-3 ovarian,> 10 µM
same,TGI,SN12C renal,> 10 µM
same,TGI,OVCAR-5 ovarian,> 10 µM
same,TGI,HCC-2998 colon,> 10 µM
CC(Cn1c2c(c3cc(O)ccc31)CCc1ccc(O)cc1-2)N(C)C (stereo unspecified),TGI,NCI-H460 lung,31.8 µM
same,TGI,NCI/ADR-RES ovarian,41.9 µM
same,TGI,SNB-75 CNS,51.2 µM
same,TGI,786-0 renal,35.9 µM
same,TGI,SR leukemia,> 100 µM
same,TGI,OVCAR-3 ovarian,30.1 µM
same,TGI,BT-549 breast,36.8 µM
same,TGI,UACC-257 melanoma,44.6 µM
same,TGI,HOP-62 NSCLC,31 µM
same,TGI,TK-10 renal,37.1 µM
same,TGI,CCRF-CEM leukemia,> 100 µM
same,TGI,HCT-116 colon,> 100 µM
same,TGI,HCT-15 colon,30.2 µM
same,TGI,U251 CNS,> 100 µM
same,TGI,A498 renal,53.7 µM
same,TGI,IGROV1 ovarian,29.1 µM
same,TGI,OVCAR-8 ovarian,33.2 µM
same,TGI,SF-539 CNS,32.1 µM
same,TGI,LOX IMVI melanoma,81 µM
same,TGI,MDA-MB-231 breast,59.4 µM
same,TGI,SK-MEL-2 melanoma,31.1 µM
same,TGI,MOLT-4 leukemia,> 100 µM
same,TGI,K-562 leukemia,> 100 µM
same,TGI,RXF 393 renal,53.2 µM
same,TGI,UACC-62 melanoma,35.9 µM
same,TGI,MALME-3M melanoma,30.8 µM
same,TGI,SF-268 CNS,53.2 µM
same,TGI,M14 melanoma,28.8 µM
same,TGI,UO-31 renal,28.3 µM
same,TGI,EKVX NSCLC,52.9 µM
same,TGI,KM12 colon,29.9 µM
same,TGI,MCF7 breast,36.3 µM
same,TGI,HT29 colon,35.8 µM
same,TGI,ACHN renal,30.1 µM
same,TGI,CAKI-1 renal,52.8 µM
same,TGI,NCI-H226 lung,37.3 µM
same,TGI,SW-620 colon,55 µM
same,TGI,PC-3 prostate,27.6 µM
same,TGI,MDA-N,48.1 µM
same,TGI,RPMI-8226 leukemia,> 100 µM
same,TGI,SF-295 CNS,45.4 µM
same,TGI,HL-60(TB) leukemia,> 100 µM
same,TGI,MDA-MB-435,41 µM
same,TGI,SNB-19 CNS,37.4 µM
same,TGI,NCI-H23 lung,41.2 µM
same,TGI,SK-OV-3 ovarian,77 µM
same,TGI,HS 578T breast,46 µM
same,TGI,SN12C renal,68.9 µM
same,TGI,OVCAR-5 ovarian,37.2 µM
